Patent publication US5109111A, “CRF antagonists” (The Salk Institute for Biological Studies, priority 1990, dated 1992)
Square brackets hold non-standard residues; d marks the D form. Peptide text beside a SMILES is read from it. hArg = N=C(N)NCCCC[C@H](N)C(=O)O; Nle = CCCC[C@H](N)C(=O)O; Orn = NCCC[C@H](N)C(=O)O; Nva = CCC[C@H](N)C(=O)O

System: secretion of ACTH stimulated by oCRF in cultured rat pituitary cells
Experiment: Blocking of oCRF-stimulated ACTH and β-endorphin secretion by cultured rat pituitary cells
Format: cell-based
Conditions: result in words
Experimental: The effectiveness of synthetic CRF antagonists to block the secretion of ACTH and β-endorphin by cultured rat pituitary cells is measured using the procedure as generally set forth in Vale et al., Endocrinology, 91, 562 (1972).

| SMILES | inhibition of the secretion of ACTH and β-END-LI |
| --- | --- |
| CCCC[C@H](NC(=O)[C@H](Cc1ccc(O)cc1)NC(=O)[C@H](CCCCN)NC(=O)[C@H](CCCNC(=N)N)NC(=O)[C@H](CC(N)=O)NC(=O)[C@H](CC(C)C)NC(=O)CNC(=O)[C@H](C)NC(=O)[C@H](CCC(N)=O)NC(=O)[C@H](CCC(=O)O)NC(=O)[C@H](CCCNC(=N)N)NC(=O)[C@H](CCC(N)=O)NC(=O)[C@H](CC(N)=O)NC(=O)[C@H](CCC(=O)O)NC(=O)[C@H](CC(N)=O)NC(=O)[C@H](CCCNC(=N)N)NC(=O)[C@H](C)NC(=O)[C@H](CCSC)NC(=O)[C@H](CCC(=O)O)NC(=O)[C@@H](NC(=O)[C@H](CCSC)NC(=O)[C@H](CC(N)=O)NC(=O)[C@H](CCCNC(=N)N)NC(=O)[C@H](CC(C)C)NC(=O)[C@H](CC(C)C)NC(=O)[C@H](Cc1c[nH]cn1)NC(=O)[C@@H](N)Cc1ccccc1)[C@@H](C)CC)C(=O)N[C@@H](CC(=O)O)C(=O)N[C@@H](CCC(=O)O)C(=O)N[C@H](C(N)=O)C(C)C [VI, [Nle^38]-Carp Urotensin I(12-41)] (H-FHLLRNMIEMARNENQREQAGLNRKY[Nle]DEV-NH2) | inhibits the secretion of ACTH and β-END-LI |
| CCCC[C@H](NC(=O)[C@H](CCC(=O)O)NC(=O)[C@@H](NC(=O)[C@H](CCCC)NC(=O)[C@H](CC(N)=O)NC(=O)[C@H](CCCNC(=N)N)NC(=O)[C@H](CC(C)C)NC(=O)[C@H](CC(C)C)NC(=O)[C@H](Cc1c[nH]cn1)NC(=O)[C@@H](N)Cc1ccccc1)[C@@H](C)CC)C(=O)N[C@@H](C)C(=O)N[C@@H](CCCNC(=N)N)C(=O)N[C@@H](CC(N)=O)C(=O)N[C@@H](CCC(=O)O)C(=O)N[C@@H](CC(N)=O)C(=O)N[C@@H](CCC(N)=O)C(=O)N[C@@H](CCCNC(=N)N)C(=O)N[C@@H](CCC(=O)O)C(=O)N[C@@H](CCC(N)=O)C(=O)N[C@@H](C)C(=O)NCC(=O)N[C@@H](CC(C)C)C(=O)N[C@@H](CC(N)=O)C(=O)N[C@@H](CCCNC(=N)N)C(=O)N[C@@H](CCCCN)C(=O)N[C@@H](Cc1ccc(O)cc1)C(=O)N[C@@H](CCCC)C(=O)N[C@@H](CC(=O)O)C(=O)N[C@@H](CCC(=O)O)C(=O)N[C@H](C(N)=O)C(C)C [VIII, [Nle^18,21,38]-Carp Urotensin I(12-41)] (H-FHLLRN[Nle]IE[Nle]ARNENQREQAGLNRKY[Nle]DEV-NH2) | inhibits the secretion of ACTH and β-END-LI |
| CCCC[C@H](NC(=O)[C@H](CC(C)C)NC(=O)[C@H](CCCCN)NC(=O)[C@H](CCCNC(=N)N)NC(=O)[C@H](CC(N)=O)NC(=O)[C@H](CO)NC(=O)[C@H](Cc1c[nH]cn1)NC(=O)[C@H](C)NC(=O)[C@H](CCC(N)=O)NC(=O)[C@H](CCC(N)=O)NC(=O)[C@H](C)NC(=O)[C@H](CC(C)C)NC(=O)[C@H](CCC(N)=O)NC(=O)[C@H](CCC(=O)O)NC(=O)[C@H](C)NC(=O)[C@H](CCCNC(=N)N)NC(=O)[C@H](C)NC(=O)[C@H](CCSC)NC(=O)[C@H](CCC(=O)O)NC(=O)CNC(=O)[C@@H](NC(=O)[C@H](CCC(=O)O)NC(=O)[C@H](CCCNC(=N)N)NC(=O)[C@H](CC(C)C)NC(=O)[C@H](CC(C)C)NC(=O)[C@H](Cc1c[nH]cn1)NC(=O)[C@H](Cc1ccccc1)NC(=O)[C@@H](NC(=O)[C@H](CC(C)C)NC(=O)[C@H](CC(=O)O)NC(C)=O)[C@@H](C)O)C(C)C)C(=O)N[C@@H](CC(=O)O)C(=O)N[C@@H](CCC)C(=O)N[C@H](C(N)=O)[C@@H](C)CC [XIII, [Acetyl-Asp^9, Gly^19, Nle^38, Asp^39, Nva^40]-hCRF(9-41)] (Ac-DLTFHLLREVGEMARAEQLAQQAHSNRKL[Nle]D[Nva]I-NH2) | inhibits the secretion of ACTH and β-END-LI |
| CCCC[C@H](NC(=O)[C@H](CCC(=O)O)NC(=O)[C@H](CC(C)C)NC(=O)[C@@H](NC(=O)[C@H](CCC(=O)O)NC(=O)[C@H](CCCNC(=N)N)NC(=O)[C@H](CC(C)C)NC(=O)[C@H](CC(C)C)NC(=O)[C@H](Cc1c[nH]cn1)NC(=O)[C@H](Cc1ccccc1)NC(=O)[C@@H](NC(=O)[C@@H](N)CC(C)C)[C@@H](C)O)C(C)C)C(=O)N[C@@H](C)C(=O)N[C@@H](CCCNC(=N)N)C(=O)NCC(=O)N[C@@H](CCC(=O)O)C(=O)N[C@@H](CCC(N)=O)C(=O)N[C@@H](CC(C)C)C(=O)N[C@@H](C)C(=O)N[C@@H](CCC(N)=O)C(=O)N[C@@H](CCC(N)=O)C(=O)N[C@@H](C)C(=O)N[C@@H](Cc1ccc(O)cc1)C(=O)N[C@@H](CO)C(=O)N[C@@H](CC(N)=O)C(=O)N[C@@H](CCCNC(=N)N)C(=O)N[C@@H](CCCN)C(=O)N[C@@H](CC(C)C)C(=O)N[C@@H](CCCC)C(=O)N[C@@H](CCC(=O)O)C(=O)N[C@H](C(=O)N[C@H](C(N)=O)[C@@H](C)CC)[C@@H](C)CC [XV, [Nle^21,38, Gly^24, Tyr^32, Orn^36]-hCRF (10-41)] (H-LTFHLLREVLE[Nle]ARGEQLAQQAYSNR[Orn]L[Nle]EII-NH2) | inhibits the secretion of ACTH and β-END-LI |
| CCCC[C@H](NC(=O)[C@H](CC(C)C)NC(=O)[C@H](CC(C)C)NC(=O)[C@H](CCCNC(=N)N)NC(=O)[C@H](CC(N)=O)NC(=O)[C@H](CC(N)=O)NC(=O)[C@H](C)NC(=O)[C@H](C)NC(=O)[C@H](CCC(N)=O)NC(=O)[C@H](CCC(N)=O)NC(=O)[C@H](CCCCN)NC(=O)[C@H](CCC(=O)O)NC(=O)[C@H](CCCCN)NC(=O)[C@H](CCC(=O)O)NC(=O)[C@H](CCC(N)=O)NC(=O)[C@H](CCCCN)NC(=O)[C@H](C)NC(=O)[C@@H](NC(=O)[C@H](CCC(=O)O)NC(=O)[C@@H](NC(=O)[C@H](CCSC)NC(=O)[C@H](CCCCN)NC(=O)[C@H](CCCNC(=N)N)NC(=O)[C@H](CC(C)C)NC(=O)[C@H](CC(C)C)NC(=O)[C@H](CCC(=O)O)NC(=O)[C@H](CC(C)C)NC(=O)[C@@H](N)CO)[C@@H](C)CC)[C@@H](C)CC)C(=O)N[C@@H](CC(=O)O)C(=O)N[C@H](C(=O)N[C@@H](CCC(N)=O)C(N)=O)[C@@H](C)O [XVI, [Ala^21, Nle^37, Gln^40]-sauvagine (10-40)] (H-SLELLRKMIEIAKQEKEKQQAANNRLL[Nle]DTQ-NH2) | inhibits the secretion of ACTH and β-END-LI |
| CCCC[C@H](NC(=O)[C@H](CC(C)C)NC(=O)[C@H](CC(C)C)NC(=O)[C@H](CCCNC(=N)N)NC(=O)[C@H](CC(N)=O)NC(=O)[C@H](CC(N)=O)NC(=O)[C@H](C)NC(=O)[C@H](C)NC(=O)[C@H](CCC(N)=O)NC(=O)[C@H](CCC(N)=O)NC(=O)[C@H](CCCCN)NC(=O)[C@H](CCC(=O)O)NC(=O)[C@H](CCCCN)NC(=O)[C@H](CCC(=O)O)NC(=O)[C@H](CCC(N)=O)NC(=O)[C@H](CCCCNC(=N)N)NC(=O)[C@H](CCC(=O)O)NC(=O)[C@H](C)NC(=O)[C@H](CCC(=O)O)NC(=O)[C@@H](NC(=O)[C@H](CCSC)NC(=O)[C@H](CCCCN)NC(=O)[C@H](CCCNC(=N)N)NC(=O)[C@H](CC(C)C)NC(=O)[C@H](CC(C)C)NC(=O)[C@H](CCC(=O)O)NC(=O)[C@@H](N)CC(C)C)[C@@H](C)CC)C(=O)N[C@@H](CC(=O)O)C(=O)N[C@@H](Cc1ccccc1)C(=O)N[C@H](C(N)=O)[C@@H](C)CC [XVII, [Ala^20, Har^22, Nle^37, Phe^39]-sauvagine (11-40)] (H-LELLRKMIEAE[hArg]QEKEKQQAANNRLL[Nle]DFI-NH2) | inhibits the secretion of ACTH and β-END-LI |
